Data on one substance can be found in patent EP0444898A1, “Cyclic hexapeptide oxytocin antagonists” (MERCK & CO. INC., priority 1990, dated 1991).

For this assay, the target named is T1, uterine OT receptors (Rattus norvegicus, UniProt P70536).
T1 construct: a crude membrane preparation of uteri; from tissue; host or cells: uterus of DES-treated rats, crude membranes
T1 sequence (P70536 1-388): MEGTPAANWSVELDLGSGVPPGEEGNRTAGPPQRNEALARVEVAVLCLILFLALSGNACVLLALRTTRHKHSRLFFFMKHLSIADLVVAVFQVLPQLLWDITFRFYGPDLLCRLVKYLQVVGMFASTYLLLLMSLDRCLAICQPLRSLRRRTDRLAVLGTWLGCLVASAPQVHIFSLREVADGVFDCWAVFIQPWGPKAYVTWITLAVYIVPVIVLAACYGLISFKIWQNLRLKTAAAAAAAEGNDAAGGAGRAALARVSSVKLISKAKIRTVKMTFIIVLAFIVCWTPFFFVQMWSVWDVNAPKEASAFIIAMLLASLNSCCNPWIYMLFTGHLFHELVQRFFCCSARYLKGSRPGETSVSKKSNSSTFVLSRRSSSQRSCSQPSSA
Briefly: [3H]OT radioligand binding to uterine OT receptors, crude membrane preparation. Also on record: species or system rats. The note with it: saturation binding assays; uterus.

By Kd is commonly meant the concentration at which binding is half-saturated. Low readings indicate tighter binding, high ones weaker binding. In turn, [tyrosyl, 3,5-^3H]OT [[^3H]OT] returned a Kd of 0.7 nM.
